Results reported in ChEMBL document CHEMBL2429821, “A Casein kinase 1/Checkpoint kinase 1 pyrazolo-pyridine protein kinase inhibitor as novel activator of the p53 pathway” (Bioorg Med Chem Lett, 2013).

Legend:
[1] = molecular target: T1, Eukaryotic elongation factor 2 kinase (Homo sapiens) (UniProt O00418); experiment: Inhibition of human EF2K assessed as residual activity at 1 uM relative to control
T1 sequence (whole entry): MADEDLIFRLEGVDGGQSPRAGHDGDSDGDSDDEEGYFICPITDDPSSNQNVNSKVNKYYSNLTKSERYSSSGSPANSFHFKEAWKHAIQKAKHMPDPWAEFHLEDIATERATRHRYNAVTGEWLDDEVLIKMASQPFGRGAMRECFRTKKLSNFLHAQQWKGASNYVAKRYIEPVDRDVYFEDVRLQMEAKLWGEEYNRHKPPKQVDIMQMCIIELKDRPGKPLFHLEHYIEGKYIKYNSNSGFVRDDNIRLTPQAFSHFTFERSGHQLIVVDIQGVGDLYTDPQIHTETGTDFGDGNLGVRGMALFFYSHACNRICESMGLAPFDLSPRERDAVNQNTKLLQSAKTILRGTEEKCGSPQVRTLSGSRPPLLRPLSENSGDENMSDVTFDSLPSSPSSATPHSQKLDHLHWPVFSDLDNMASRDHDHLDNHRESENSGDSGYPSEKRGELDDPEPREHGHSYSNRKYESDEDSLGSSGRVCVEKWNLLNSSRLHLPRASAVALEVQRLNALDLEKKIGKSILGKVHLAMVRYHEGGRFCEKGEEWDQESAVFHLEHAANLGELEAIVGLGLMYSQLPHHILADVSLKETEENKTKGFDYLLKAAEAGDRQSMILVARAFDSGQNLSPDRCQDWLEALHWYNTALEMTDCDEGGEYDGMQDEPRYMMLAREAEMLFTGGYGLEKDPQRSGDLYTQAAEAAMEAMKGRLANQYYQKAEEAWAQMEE

[2] = molecular target: Ribosomal protein S6 kinase alpha-5 (Homo sapiens) (UniProt O75582); experiment: Inhibition of human MSK1 assessed as residual activity at 10 uM relative to control
[3] = molecular target: Insulin receptor (Homo sapiens) (UniProt P06213); experiment: Inhibition of human IR assessed as residual activity at 10 uM relative to control
[4] = molecular target: T1, Eukaryotic elongation factor 2 kinase (Homo sapiens); experiment: Inhibition of human EF2K assessed as residual activity at 10 uM relative to control
[5] = molecular target: Myosin light chain kinase, smooth muscle (Homo sapiens) (UniProt Q15746); experiment: Inhibition of human smMLCK assessed as residual activity at 1 uM relative to control
Myosin light chain kinase, smooth muscle (Homo sapiens), sequence (Q15746 whole entry): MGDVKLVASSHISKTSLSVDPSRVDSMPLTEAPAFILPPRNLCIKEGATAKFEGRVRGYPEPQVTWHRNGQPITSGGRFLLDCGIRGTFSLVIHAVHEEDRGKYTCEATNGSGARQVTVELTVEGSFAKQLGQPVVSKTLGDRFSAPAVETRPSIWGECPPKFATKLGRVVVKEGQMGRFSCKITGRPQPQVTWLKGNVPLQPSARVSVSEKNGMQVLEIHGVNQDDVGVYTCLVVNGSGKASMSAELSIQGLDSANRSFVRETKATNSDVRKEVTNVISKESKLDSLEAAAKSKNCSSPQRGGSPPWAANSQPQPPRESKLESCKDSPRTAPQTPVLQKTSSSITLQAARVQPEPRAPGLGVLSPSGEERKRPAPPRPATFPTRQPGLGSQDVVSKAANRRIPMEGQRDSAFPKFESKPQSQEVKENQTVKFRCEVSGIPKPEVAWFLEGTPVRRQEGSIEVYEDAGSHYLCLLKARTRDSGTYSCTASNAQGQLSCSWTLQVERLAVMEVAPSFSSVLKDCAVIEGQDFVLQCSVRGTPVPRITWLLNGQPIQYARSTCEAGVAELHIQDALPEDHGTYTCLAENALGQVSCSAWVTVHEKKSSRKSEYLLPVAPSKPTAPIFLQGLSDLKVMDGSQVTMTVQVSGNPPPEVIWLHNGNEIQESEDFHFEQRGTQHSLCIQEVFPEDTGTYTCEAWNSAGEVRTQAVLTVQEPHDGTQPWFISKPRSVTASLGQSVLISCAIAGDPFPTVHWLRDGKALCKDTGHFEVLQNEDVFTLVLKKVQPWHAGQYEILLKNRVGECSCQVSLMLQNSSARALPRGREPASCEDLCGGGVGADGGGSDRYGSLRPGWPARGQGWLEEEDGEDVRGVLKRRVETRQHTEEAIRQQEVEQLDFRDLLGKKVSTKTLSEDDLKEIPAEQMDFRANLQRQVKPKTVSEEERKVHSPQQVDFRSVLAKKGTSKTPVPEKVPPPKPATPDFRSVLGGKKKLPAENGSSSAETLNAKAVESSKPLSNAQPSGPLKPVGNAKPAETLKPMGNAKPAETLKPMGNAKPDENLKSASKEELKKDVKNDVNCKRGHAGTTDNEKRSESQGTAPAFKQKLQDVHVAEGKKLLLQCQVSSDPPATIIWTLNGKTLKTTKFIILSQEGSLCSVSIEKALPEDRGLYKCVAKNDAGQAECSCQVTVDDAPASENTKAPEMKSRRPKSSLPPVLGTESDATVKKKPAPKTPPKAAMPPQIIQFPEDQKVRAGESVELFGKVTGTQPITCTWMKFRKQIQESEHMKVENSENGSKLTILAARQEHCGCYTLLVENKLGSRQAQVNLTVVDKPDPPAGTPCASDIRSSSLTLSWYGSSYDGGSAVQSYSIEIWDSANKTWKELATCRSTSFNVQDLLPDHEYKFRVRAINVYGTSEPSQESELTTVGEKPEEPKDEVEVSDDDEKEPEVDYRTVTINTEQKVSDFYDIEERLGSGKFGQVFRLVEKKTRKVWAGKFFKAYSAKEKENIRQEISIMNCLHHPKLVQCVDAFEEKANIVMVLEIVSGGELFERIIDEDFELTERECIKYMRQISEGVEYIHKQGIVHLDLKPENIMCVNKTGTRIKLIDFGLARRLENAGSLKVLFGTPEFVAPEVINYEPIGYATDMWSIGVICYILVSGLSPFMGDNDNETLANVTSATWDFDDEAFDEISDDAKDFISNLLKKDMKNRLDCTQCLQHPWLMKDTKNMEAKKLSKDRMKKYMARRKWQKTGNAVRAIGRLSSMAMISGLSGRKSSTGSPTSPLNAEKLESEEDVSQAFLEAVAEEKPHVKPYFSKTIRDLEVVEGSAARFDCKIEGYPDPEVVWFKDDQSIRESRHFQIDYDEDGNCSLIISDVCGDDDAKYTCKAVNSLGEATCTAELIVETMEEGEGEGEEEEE

[6] = molecular target: MAP kinase-interacting serine/threonine-protein kinase 1 (Homo sapiens) (UniProt Q9BUB5); experiment: Inhibition of human MNK1 assessed as residual activity at 1 uM relative to control
[7] = molecular target: Mitogen-activated protein kinase 9 (Homo sapiens) (UniProt P45984); experiment: Inhibition of human JNK2 assessed as residual activity at 1 uM relative to control
Mitogen-activated protein kinase 9 (Homo sapiens), sequence (P45984 whole entry, looked up, canonical isoform): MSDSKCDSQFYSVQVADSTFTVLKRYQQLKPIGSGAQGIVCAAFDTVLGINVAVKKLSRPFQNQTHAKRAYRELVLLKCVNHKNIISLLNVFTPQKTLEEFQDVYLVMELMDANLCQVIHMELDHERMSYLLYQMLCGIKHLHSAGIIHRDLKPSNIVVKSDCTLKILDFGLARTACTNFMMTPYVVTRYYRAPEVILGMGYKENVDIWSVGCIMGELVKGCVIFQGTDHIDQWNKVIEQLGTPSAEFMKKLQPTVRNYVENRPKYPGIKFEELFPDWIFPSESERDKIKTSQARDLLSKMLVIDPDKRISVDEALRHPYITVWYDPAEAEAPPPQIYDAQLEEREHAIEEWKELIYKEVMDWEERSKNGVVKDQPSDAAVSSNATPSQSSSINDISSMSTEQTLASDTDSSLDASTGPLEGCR

[8] = molecular target: Casein kinase I isoform delta (Rattus norvegicus) (UniProt Q06486); experiment: Inhibition of rat CK1delta assessed as residual activity at 1 uM relative to control
Casein kinase I isoform delta (Rattus norvegicus), sequence (Q06486 whole entry, looked up, canonical isoform): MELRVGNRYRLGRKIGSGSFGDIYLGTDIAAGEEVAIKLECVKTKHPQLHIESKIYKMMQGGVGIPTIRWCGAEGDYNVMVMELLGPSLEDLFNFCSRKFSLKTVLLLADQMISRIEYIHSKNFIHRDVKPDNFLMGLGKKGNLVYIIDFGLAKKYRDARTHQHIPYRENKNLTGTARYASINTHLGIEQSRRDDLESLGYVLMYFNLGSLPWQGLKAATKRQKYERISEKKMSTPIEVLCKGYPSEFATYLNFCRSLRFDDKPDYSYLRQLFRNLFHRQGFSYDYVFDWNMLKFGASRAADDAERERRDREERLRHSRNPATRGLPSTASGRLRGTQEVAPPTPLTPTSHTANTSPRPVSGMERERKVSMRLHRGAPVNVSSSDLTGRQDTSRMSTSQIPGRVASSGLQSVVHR

[9] = molecular target: T2, Serine/threonine-protein kinase TBK1 (Homo sapiens) (UniProt Q9UHD2); experiment: Inhibition of human TBK1 assessed as residual activity at 10 uM relative to control
T2 sequence (whole entry): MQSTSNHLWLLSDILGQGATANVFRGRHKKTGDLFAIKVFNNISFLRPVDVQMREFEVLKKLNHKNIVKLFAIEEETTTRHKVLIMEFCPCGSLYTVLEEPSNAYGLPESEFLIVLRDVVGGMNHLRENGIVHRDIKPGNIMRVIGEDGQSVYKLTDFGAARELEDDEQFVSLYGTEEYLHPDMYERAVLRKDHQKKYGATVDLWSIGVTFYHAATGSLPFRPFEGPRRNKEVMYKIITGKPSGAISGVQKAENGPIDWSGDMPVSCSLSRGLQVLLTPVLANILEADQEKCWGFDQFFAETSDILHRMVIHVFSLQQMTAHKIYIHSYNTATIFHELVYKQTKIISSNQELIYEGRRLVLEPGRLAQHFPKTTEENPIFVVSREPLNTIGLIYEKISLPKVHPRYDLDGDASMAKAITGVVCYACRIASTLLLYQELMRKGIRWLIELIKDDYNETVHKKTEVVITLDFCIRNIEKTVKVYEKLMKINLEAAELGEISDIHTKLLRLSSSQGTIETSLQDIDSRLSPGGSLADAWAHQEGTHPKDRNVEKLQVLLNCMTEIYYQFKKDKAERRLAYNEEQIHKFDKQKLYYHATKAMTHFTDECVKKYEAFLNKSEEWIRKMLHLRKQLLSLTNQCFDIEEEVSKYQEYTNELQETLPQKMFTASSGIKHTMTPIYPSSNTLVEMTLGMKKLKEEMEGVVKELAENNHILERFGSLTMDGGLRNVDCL

[10] = molecular target: Serine/threonine-protein kinase N2 (Homo sapiens) (UniProt Q16513); experiment: Inhibition of human PRK2 assessed as residual activity at 10 uM relative to control
Serine/threonine-protein kinase N2 (Homo sapiens), sequence (Q16513 whole entry, looked up): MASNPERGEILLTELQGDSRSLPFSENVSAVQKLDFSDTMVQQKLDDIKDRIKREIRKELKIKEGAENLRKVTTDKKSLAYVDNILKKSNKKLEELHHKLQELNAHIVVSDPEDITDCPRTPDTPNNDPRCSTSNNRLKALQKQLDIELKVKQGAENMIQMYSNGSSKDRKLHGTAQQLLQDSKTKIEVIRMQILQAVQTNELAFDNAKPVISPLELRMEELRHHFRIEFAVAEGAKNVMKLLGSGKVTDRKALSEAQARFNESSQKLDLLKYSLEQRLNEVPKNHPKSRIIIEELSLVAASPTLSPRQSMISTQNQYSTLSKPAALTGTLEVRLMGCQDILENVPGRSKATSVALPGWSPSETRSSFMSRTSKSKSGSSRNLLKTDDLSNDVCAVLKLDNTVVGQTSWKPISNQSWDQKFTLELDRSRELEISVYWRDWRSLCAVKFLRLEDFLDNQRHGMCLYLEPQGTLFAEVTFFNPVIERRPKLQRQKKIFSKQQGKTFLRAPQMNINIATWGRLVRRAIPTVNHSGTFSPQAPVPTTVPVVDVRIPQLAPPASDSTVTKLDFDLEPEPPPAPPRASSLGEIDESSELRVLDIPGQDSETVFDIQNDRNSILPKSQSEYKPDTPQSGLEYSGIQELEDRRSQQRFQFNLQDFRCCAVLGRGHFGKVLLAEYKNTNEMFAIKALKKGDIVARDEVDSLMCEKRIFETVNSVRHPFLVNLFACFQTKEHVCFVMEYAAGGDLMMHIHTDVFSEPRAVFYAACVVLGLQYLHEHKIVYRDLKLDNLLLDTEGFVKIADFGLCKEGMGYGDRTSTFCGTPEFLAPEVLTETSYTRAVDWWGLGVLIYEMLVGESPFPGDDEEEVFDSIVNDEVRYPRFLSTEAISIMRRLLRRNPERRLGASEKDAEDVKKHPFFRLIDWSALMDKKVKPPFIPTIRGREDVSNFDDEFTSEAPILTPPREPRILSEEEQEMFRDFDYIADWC

Oryctolagus cuniculus = species on record: Oryctolagus cuniculus; experiment: Inhibition of rabbit MKK1 assessed as residual activity at 10 uM relative to control
[11] = molecular target: T3, Inhibitor of nuclear factor kappa-B kinase subunit beta (Homo sapiens) (UniProt O14920); experiment: Inhibition of human IKKbeta assessed as residual activity at 10 uM relative to control
T3 sequence (whole entry): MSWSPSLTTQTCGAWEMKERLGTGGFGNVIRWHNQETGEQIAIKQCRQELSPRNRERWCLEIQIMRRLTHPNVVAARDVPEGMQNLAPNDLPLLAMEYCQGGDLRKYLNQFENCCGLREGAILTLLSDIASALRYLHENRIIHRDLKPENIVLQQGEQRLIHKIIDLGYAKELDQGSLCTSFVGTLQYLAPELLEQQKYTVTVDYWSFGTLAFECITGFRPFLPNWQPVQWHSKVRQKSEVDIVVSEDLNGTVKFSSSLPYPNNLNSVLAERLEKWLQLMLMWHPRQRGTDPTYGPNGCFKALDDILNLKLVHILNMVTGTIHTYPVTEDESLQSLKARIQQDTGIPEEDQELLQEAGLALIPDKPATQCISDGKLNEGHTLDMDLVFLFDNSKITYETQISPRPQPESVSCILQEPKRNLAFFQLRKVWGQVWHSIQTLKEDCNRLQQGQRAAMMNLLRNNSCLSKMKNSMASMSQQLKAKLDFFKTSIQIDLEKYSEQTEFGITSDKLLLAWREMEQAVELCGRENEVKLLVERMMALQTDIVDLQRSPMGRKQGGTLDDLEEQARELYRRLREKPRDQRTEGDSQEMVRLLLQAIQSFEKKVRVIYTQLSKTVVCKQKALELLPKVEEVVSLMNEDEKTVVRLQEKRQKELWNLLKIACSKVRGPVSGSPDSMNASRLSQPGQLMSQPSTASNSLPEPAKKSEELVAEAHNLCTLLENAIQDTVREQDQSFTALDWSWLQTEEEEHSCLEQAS

[12] = molecular target: Insulin receptor-related protein (Homo sapiens) (UniProt P14616); experiment: Inhibition of human IRR assessed as residual activity at 10 uM relative to control
Insulin receptor-related protein (Homo sapiens), sequence (P14616 27-742 limits assumed): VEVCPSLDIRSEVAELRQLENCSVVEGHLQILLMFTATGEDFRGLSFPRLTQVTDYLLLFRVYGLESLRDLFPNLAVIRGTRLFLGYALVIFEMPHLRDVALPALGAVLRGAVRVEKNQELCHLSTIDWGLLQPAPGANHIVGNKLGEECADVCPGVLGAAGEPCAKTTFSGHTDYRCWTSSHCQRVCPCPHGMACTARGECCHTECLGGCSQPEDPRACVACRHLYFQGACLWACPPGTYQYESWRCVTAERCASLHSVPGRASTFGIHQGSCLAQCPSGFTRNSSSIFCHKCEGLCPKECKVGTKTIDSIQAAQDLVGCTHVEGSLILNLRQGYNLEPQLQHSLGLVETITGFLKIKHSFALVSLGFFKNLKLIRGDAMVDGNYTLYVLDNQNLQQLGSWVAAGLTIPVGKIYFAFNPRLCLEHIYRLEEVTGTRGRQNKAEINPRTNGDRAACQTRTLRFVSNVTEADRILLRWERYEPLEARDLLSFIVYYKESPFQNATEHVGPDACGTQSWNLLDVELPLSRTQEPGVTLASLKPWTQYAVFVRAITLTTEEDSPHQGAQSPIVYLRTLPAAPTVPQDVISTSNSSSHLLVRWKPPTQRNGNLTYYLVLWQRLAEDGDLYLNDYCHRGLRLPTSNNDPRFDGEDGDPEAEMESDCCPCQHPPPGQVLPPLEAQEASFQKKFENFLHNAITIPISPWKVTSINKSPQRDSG
Insulin receptor-related protein (Homo sapiens), sequence (P14616 747-1297 limits assumed): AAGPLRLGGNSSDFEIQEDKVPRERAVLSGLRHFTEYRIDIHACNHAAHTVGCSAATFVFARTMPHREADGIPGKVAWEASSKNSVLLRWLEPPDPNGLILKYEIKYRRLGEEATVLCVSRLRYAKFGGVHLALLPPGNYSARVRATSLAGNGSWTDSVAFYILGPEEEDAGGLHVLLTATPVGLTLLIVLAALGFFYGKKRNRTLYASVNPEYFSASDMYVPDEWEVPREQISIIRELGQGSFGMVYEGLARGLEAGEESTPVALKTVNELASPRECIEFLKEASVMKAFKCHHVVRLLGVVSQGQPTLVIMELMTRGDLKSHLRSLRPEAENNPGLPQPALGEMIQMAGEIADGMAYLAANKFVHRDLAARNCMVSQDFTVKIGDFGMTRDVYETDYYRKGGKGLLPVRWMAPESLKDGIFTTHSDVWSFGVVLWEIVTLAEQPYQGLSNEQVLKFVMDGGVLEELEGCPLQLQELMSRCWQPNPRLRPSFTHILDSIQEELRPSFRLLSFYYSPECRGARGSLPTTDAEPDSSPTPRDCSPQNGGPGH

Row | SMILES | Activity [1] [%] | Activity [2] [%] | Activity [3] [%] | Activity [4] [%] | Activity [5] [%] | Activity [6] [%] | Activity [7] [%] | Activity [8] [%] | Activity [9] [%] | Activity [10] [%] | Activity (Oryctolagus cuniculus) [%] | Activity [11] [%] | Activity [12] [%]
1 | CC(=O)Nc1cccc(-c2cnc3[nH]nc(C)c3c2)c1 | 112 | 63.5 | 94.9 | 106 | 72.9 | 70 | 98.5 | 32.7 | 48.2 | 42.2 | 45.9 | 72 | 48.8
2 | CCCC(=O)Nc1n[nH]c2ncc(-c3cccnc3)cc12 | 106 | 78 | 101 | 95 | 87 | 79 | 99 | 73 | 70 | 76 | 103 | 90 | 58
3 | CC(=O)Nc1nccc(-c2c(-c3ccccc3)noc2C)n1 | 83.2 | 67.1 | 100 | 83 | 80.4 | 101 | 85.2 | 44.4 | 105 | 96.5 | 66.8 | 80.4 | 81.4
